Experimental data as given in patent publication US12252492B2, “Substituted fused pyrrolo-diazepinones and uses thereof” (Northwestern University, priority 2018, dated 2025).

System: A549/ATCC
Experiment: NCI60 one-dose screen, A549
Format: cell-based, human
Conditions: A549 cells; single concentration of 10 μM; NCI60 panel
Experimental: Anti-cancer activity screening of all compounds was performed by the NCI Developmental Therapeutics Program (DTP) through their NCI60 screening initiative. Assay details can be found at the website dtp.cancer.gov/discovery_development/nci-60/methodology.htm. Information from this website is reproduced here for convenience.
As of early 2007 all compounds submitted to the NCI 60 Cell screen are tested initially at a single high dose (10^-5 M) in the full NCI 60 cell panel. Only compounds which satisfy pre-determined threshold inhibition criteria in a minimum number of cell lines will progress to the full 5-dose assay. The threshold inhibition criteria for progression to the 5-dose screen was selected to efficiently capture compounds with anti-proliferative activity based on careful analysis of historical DTP screening data. The threshold criteria may be updated as additional data becomes available.
The One-dose data will be reported as a mean graph of the percent growth of treated cells and will be similar in appearance to mean graphs from the 5-dose assay. The number reported for the One-dose assay is growth relative to the no-drug control, and relative to the time zero number of cells. This allows detection of both growth inhibition (values between 0 and 100) and lethality (values less than 0). This is the same as for the 5-dose assay, described below. For example, a value of 100 means no growth inhibition. A value of 40 would mean 60% growth inhibition. A value of 0 means no net growth over the course of the experiment. A value of −40 would mean 40% lethality. A value of −100 means all cells are dead. Information from the One-dose mean graph is available for COMPARE analysis.
The human tumor cell lines of the cancer screening panel are grown in RPMI 1640 medium containing 5% fetal bovine serum and 2 mM L-glutamine. For a typical screening experiment, cells are inoculated into 96 well microtiter plates in 100 μL at plating densities ranging from 5,000 to 40,000 cells/well depending on the doubling time of individual cell lines. After cell inoculation, the microtiter plates are incubated at 37° C., 5% CO2, 95% air and 100% relative humidity for 24 h prior to addition of experimental drugs.
After 24 h, two plates of each cell line are fixed in situ with TCA, to represent a measurement of the cell population for each cell line at the time of drug addition (Tz). Experimental drugs are solubilized in dimethyl sulfoxide at 400-fold the desired final maximum test concentration and stored frozen prior to use. At the time of drug addition, an aliquot of frozen concentrate is thawed and diluted to twice the desired final maximum test concentration with complete medium containing 50 μg/ml gentamicin. Additional four, 10-fold or ½ log serial dilutions are made to provide a total of five drug concentrations plus control. Aliquots of 100 μl of these different drug dilutions are added to the appropriate microtiter wells already containing 100 μl of medium, resulting in the required final drug concentrations.
Following drug addition, the plates are incubated for an additional 48 h at 37° C., 5% CO2, 95% air, and 100% relative humidity. For adherent cells, the assay is terminated by the addition of cold TCA. Cells are fixed in situ by the gentle addition of 50 μl of cold 50% (w/v) TCA (final concentration, 10% TCA) and incubated for 60 minutes at 4° C. The supernatant is discarded, and the plates are washed five times with tap water and air dried. Sulforhodamine B (SRB) solution (100 μl) at 0.4% (w/v) in 1% acetic acid is added to each well, and plates are incubated for 10 minutes at room temperature. After staining, unbound dye is removed by washing five times with 1% acetic acid and the plates are air dried. Bound stain is subsequently solubilized with 10 mM trizma base, and the absorbance is read on an automated plate reader at a wavelength of 515 nm. […]

Compound	reduction of cell growth of A549 non-small cell lung cancer cells [%]
CC(C)C1C2=C(NCCN1C(=O)C1CCCC1)C(C)(C)N(Cc1ccccc1)C2=O (stereo not shown) [Compound 8c]	24
CC(C)C1C2=C(NCCN1C(=O)c1cccnc1)C(C)(C)N(Cc1ccccc1)C2=O (stereo not shown) [Compound 8f]	32
CC(C)C1C2=C(NCCN1C(=O)c1ccncc1)C(C)(C)N(Cc1ccccc1)C2=O (stereo not shown) [Compound 8e]	< 5
CC1(C)C2=C(C(=O)N1Cc1ccccc1)C(c1ccco1)N(C(=O)C1CCC1)CCN2 (stereo not shown) [Compound 8m, 7-benzyl-4-(cyclobutanecarbonyl)-5-(furan-2-yl)-8,8-dimethyl-2,3,4,5,7,8-hexahydropyrrolo[3,4-e][1,4]diazepin-6(1H)-one]	24
